# In US20260174739A1 (priority 2022, published 2026):
# Where a name gives a salt, the structure may show the parent alone.
# Target: human SERT (Homo sapiens, UniProt P31645)
# Assay: Inhibitory activity assay against 5-HT transporter (neurotransmitter transporter uptake assay kit)
# Format: cell-based
# Conditions: HEK-293 cells overexpressing human SERT; read-out: 5-HTT (IC50)
# Method: In HEK-293 cells overexpressing human SERT, the transporter inhibitory effect of the test compound on human SERT was assayed using a Neurotransmitter transporter uptake assay kit (Molecular devices).
# Chain of human SERT (P31645 whole entry): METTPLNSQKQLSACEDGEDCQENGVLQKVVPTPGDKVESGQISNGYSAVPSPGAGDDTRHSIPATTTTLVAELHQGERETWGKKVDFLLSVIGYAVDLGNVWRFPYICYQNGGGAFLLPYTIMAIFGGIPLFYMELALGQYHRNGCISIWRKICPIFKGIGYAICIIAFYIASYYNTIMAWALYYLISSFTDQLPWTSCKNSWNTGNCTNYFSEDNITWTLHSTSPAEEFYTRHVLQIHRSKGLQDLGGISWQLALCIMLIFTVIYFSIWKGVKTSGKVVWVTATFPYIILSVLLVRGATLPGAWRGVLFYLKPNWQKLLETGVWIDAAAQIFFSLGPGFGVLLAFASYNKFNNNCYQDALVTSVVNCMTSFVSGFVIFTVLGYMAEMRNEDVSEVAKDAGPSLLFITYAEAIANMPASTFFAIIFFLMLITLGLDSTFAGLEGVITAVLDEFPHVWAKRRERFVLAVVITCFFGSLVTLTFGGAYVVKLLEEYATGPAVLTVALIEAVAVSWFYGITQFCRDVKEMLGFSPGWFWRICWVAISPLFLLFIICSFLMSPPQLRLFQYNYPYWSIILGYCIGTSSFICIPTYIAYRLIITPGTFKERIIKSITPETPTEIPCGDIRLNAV
smiles,measurement,value
N#Cc1cccc(C2(N)CCc3nc(N)sc3C2)c1 (racemic),IC50,8900 nM
"NC1(c2ccccc2)CCc2nc(O)sc2C1 (racemic) [rac-A8, 6-amino-6-phenyl-4,5,6,7-tetrahydrobenzothiazol-2-ol]",IC50,7 nM
"CN(Cc1ccccc1)C1(c2ccccc2)CCc2[nH]ncc2C1 (racemic) [rac-A68, N-benzyl-N-methyl-5-phenyl-4,5,6,7-tetrahydro-1H-indazol-5-amine]",IC50,700 nM
"CNC1(c2ccccc2F)CCc2nc(N)sc2C1 (racemic) [rac-A81, 6-(2-fluorophenyl)-N^6-methyl-4,5,6,7-tetrahydrobenzothiazole-2,6-diamine]",IC50,94 nM
"CNC1(c2cccc(OC)c2)CCc2nc(N)sc2C1 (racemic) [rac-A88, 6-(3-methoxyphenyl)-N^6-methyl-4,5,6,7-tetrahydrobenzothiazole-2,6-diamine]",IC50,900 nM
"COc1ccc(C2(N)CCc3nc(N)sc3C2)cc1 (racemic) [rac-A89, 6-(4-methoxyphenyl)-4,5,6,7-tetrahydrobenzothiazole-2,6-diamine]",IC50,7600 nM
"CNC1(c2cccc(C(F)(F)F)c2)CCc2nc(N)sc2C1 (racemic) [rac-A94, 6-(3-trifluoromethylphenyl)-N^6-methyl-4,5,6,7-tetrahydrobenzothiazole-2,6-diamine hydrobromide]",IC50,4300 nM
"Nc1nc2c(s1)CC(N)(c1cccnc1)CC2 (racemic) [rac-A98, 6-(pyridin-3-yl)-4,5,6,7-tetrahydrobenzothiazole-2,6-diamine]",IC50,16000 nM
"Cc1ccccc1C1(N)CCc2nc(N)sc2C1 (racemic) [rac-A100, 6-(2-methylphenyl)-4,5,6,7-tetrahydrobenzothiazole-2,6-diamine]",IC50,17000 nM
"Nc1nc2c(s1)CC(N)(c1ccc3ccccc3c1)CC2 (racemic) [rac-A118, 6-(naphthalen-2-yl)-4,5,6,7-tetrahydrobenzothiazole-2,6-diamine]",IC50,2000 nM
"NC1(c2ccccc2)CCc2nc(C(F)(F)F)sc2C1 (racemic) [rac-A131, 6-phenyl-2-(trifluoromethyl)-4,5,6,7-tetrahydrobenzo[d]thiazol-6-amine hydrochloride]",IC50,3600 nM
"NC1(c2ccccc2)CCc2scnc2C1 (racemic) [rac-A134, 5-phenyl-4,5,6,7-tetrahydrobenzo[d]thiazol-5-amine]",IC50,17000 nM
"NC1(c2ccccc2)CCc2oncc2C1 (racemic) [rac-A145, phenyl-4,5,6,7-tetrahydrobenzo[d]isoxazol-5-amine]",IC50,600 nM
"NC1(c2ccc(F)cc2)CCCc2cn[nH]c21 (racemic) [rac-A222, 7-(4-fluorophenyl)-4,5,6,7-tetrahydro-1H-indazol-7-amine]",IC50,10000 nM
"COc1nc2c(s1)CC(N)(c1ccccc1)CC2 (racemic) [rac-A225, 2-methoxy-6-phenyl-4,5,6,7-tetrahydrobenzo[d]thiazol-6-amine]",IC50,1000 nM
"CN(C)C1(c2ccccc2)CCc2ncsc2C1 (racemic) [rac-A233, N,N-dimethyl-6-phenyl-4,5,6,7-tetrahydrobenzo[d]thiazol-6-amine]",IC50,300 nM
"Nc1nc2c(s1)CC(N)(c1ccc(F)cc1F)CC2 (racemic) [rac-A235, 6-(2,4-difluorophenyl)-4,5,6,7-tetrahydrobenzo[d]thiazole-2,6-diamine]",IC50,5900 nM
"CNC1(c2ccc(F)cc2F)CCc2nc(N)sc2C1 (racemic) [rac-A236, 6-(2,4-difluorophenyl)-N^6-methyl-4,5,6,7-tetrahydrobenzo[d]thiazole-2,6-diamine]",IC50,2800 nM
"NC1(c2ccccc2)CCc2nnsc2C1 (racemic) [rac-A244, 6-phenyl-4,5,6,7-tetrahydrobenzo[d][1,2,3]thiadiazol-6-amine hydrochloride]",IC50,1500 nM
"CN(C)C1(c2ccccc2)CCc2sc(N)nc2C1 (racemic) [rac-A249, N^5, N^5-dimethyl-5-phenyl-4,5,6,7-tetrahydrobenzo[d]thiazole-2,5-diamine]",IC50,1000 nM
"CNC1(c2ccc(OC)c(OC)c2)CCc2nc(N)sc2C1 (racemic) [rac-A254, 6-(3,4-dimethoxyphenyl)-N^6-methyl-4,5,6,7-tetrahydrobenzo[d]thiazole-2,6-diamine]",IC50,2000 nM
"CCOc1nc2c(s1)CC(N)(c1ccccc1)CC2 (racemic) [rac-A257, 2-ethoxy-6-phenyl-4,5,6,7-tetrahydrobenzo[d]thiazol-6-amine]",IC50,300 nM
"COc1cccc(C2(N)CCc3nc(O)sc3C2)c1 (racemic) [rac-A262, 6-amino-6-(3-methoxyphenyl)-4,5,6,7-tetrahydrobenzo[d]thiazol-2-ol]",IC50,140 nM
"CNC1(c2cccc(OC)c2)CCc2ncsc2C1 (racemic) [rac-A273, 6-(3-methoxyphenyl)-N-methyl-4,5,6,7-tetrahydrobenzo[d]thiazol-6-amine hydrochloride]",IC50,1000 nM
"CNC1(c2ccccc2)CCc2nc(O)sc2C1 (racemic) [rac-A279, 6-(methylamino)-6-phenyl-4,5,6,7-tetrahydrobenzo[d]thiazol-2-ol]",IC50,28 nM
"CNC1(c2ccc(F)cc2)CCc2ncsc2C1 (racemic) [rac-A294, 6-(4-fluorophenyl)-N-methyl-4,5,6,7-tetrahydrobenzo[d]thiazol-6-amine]",IC50,1100 nM
"CCOc1cccc(C2(N)CCc3nc(O)sc3C2)c1 (racemic) [rac-A295, 6-amino-6-(3-ethoxyphenyl)-4,5,6,7-tetrahydrobenzo[d]thiazol-2-ol hydrochloride]",IC50,110 nM
"COc1cccc(C2(N)CCc3c(sc(=O)n3C)C2)c1 (racemic) [rac-A299, 6-amino-6-(3-methoxyphenyl)-3-methyl-4,5,6,7-tetrahydrobenzo[d]thiazol-2-one hydrochloride]",IC50,520 nM
"COc1cccc(C2(N)CCc3nc(NC(C)=O)sc3C2)c1 (racemic) [rac-A300, N-(6-amino-6-(3-methoxyphenyl)-4,5,6,7-tetrahydrobenzo[d]thiazol-2-yl)acetamide]",IC50,2100 nM
"CCNc1nc2c(s1)CC(N)(c1cccc(OC)c1)CC2 (racemic) [rac-A301, N^2-ethyl-6-(3-methoxyphenyl)-4,5,6,7-tetrahydrobenzo[d]thiazole-2,6-diamine hydrochloride]",IC50,4000 nM
"CSc1cccc(C2(N)CCc3nc(N)sc3C2)c1 (racemic) [rac-A304, 6-(3-methylthio)phenyl-4,5,6,7-tetrahydrobenzo[d]thiazole-2,6-diamine]",IC50,3700 nM
"NC1(c2cccc(O)c2)CCc2nc(O)sc2C1 (racemic) [rac-A306, 6-amino-6-(3-hydroxyphenyl)-4,5,6,7-tetrahydrobenzo[d]thiazol-2-ol]",IC50,200 nM
"COc1cccc(C2(N)CCc3nc(N)sc3C2)n1 (racemic) [rac-A310, 6-(6-methoxypyridin-2-yl)-4,5,6,7-tetrahydrobenzo[d]thiazole-2,6-diamine]",IC50,16000 nM
"COc1cccc(C2(N)CCc3nc(C(C)=O)sc3C2)c1 (racemic) [rac-A314, 1-(6-amino-6-(3-methoxyphenyl)-4,5,6,7-tetrahydrobenzo[d]thiazol-2-yl)ethan-1-one hydrochloride]",IC50,5600 nM
"COc1cccc(C2(N)CCc3nc(C(N)=O)sc3C2)c1 (racemic) [rac-A315, 6-amino-6-(3-methoxyphenyl)-4,5,6,7-tetrahydrobenzo[d]thiazole-2-formamide]",IC50,6800 nM
"COc1cccc(C2(N)CCc3nc(C4CC4)sc3C2)c1 (racemic) [rac-A316, 2-cyclopropyl-6-(3-methoxyphenyl)-4,5,6,7-tetrahydrobenzo[d]thiazol-6-amine hydrochloride]",IC50,4000 nM
"COc1cccc(C2(N)CCc3nc(OC)sc3C2)c1 (racemic) [rac-A317, 2-methoxy-6-(3-methoxyphenyl)-4,5,6,7-tetrahydrobenzo[d]thiazol-6-amine]",IC50,5100 nM
"COc1cccc(C2(N)CCc3nc(Br)sc3C2)c1 (racemic) [rac-A318, 2-bromo-6-(3-methoxyphenyl)-4,5,6,7-tetrahydrobenzo[d]thiazol-6-amine hydrochloride]",IC50,4600 nM
"COc1cccc(C2(N)CCc3nc(-c4ccccc4)sc3C2)c1 (racemic) [rac-A319, 6-(3-methoxyphenyl)-2-phenyl-4,5,6,7-tetrahydrobenzo[d]thiazol-6-amine hydrochloride]",IC50,980 nM
Nc1nc2c(s1)C[C@@](N)(c1ccccc1)CC2 [R-A1],IC50,1000 nM
N[C@]1(c2ccccc2)CCc2ncsc2C1 [R-A14],IC50,67 nM
"CCOc1cccc([C@@]2(N)CCc3nc(N)sc3C2)c1 [R-A228, (R)-6-(3-ethoxyphenyl)-4,5,6,7-tetrahydrobenzo[d]thiazole-2,6-diamine]",IC50,2900 nM
